Laboratory results taken from PubChem BioAssay AID192 (DTP/NCI, 2004).
“And” between values parts separate entries of the source, which are not always exact repeats. Equal entries are not always repeated. Toxic doses and inconclusive results are not listed. Rule for the calls: active = survival T/C of 150% or more; inactive = T/C below 125% in these data.

Tested on: BDF1 mice, B16 melanoma ip, median survival T/C
Test: NCI In Vivo Anticancer Drug Screen. Data for tumor model B16 Melanoma (intraperitoneal) in B6D2F1 (BDF1) mice
Conditions: endpoint: median survival time, higher = longer survival
Protocol: The antitumor activity of compounds was measured in mice bearing transplantable tumors. Survival or tumor size were measured and the results are expressed as the measurement made in the treated group (T) divided by the measurement made in the vehicle treated control group (C). The tumor model used in this assay is B16 Melanoma (intraperitoneal) in B6D2F1 (BDF1) mice

[1] = dose: 6.25 mg/kg/injection, schedule: Q01DX009 (ip), vehicle: Klucel (hydroxypropylcellulose) (HPC)
[2] = dose: 12.5 mg/kg/injection, schedule: Q01DX009 (ip), vehicle: Klucel (hydroxypropylcellulose) (HPC)
[3] = dose: 25.0 mg/kg/injection, schedule: Q01DX009 (ip), vehicle: Klucel (hydroxypropylcellulose) (HPC)

Measured: T/C

CCN(CCCCOC(=O)c1ccc(OC)c(OC)c1)C(C)Cc1ccc(OC)cc1 (stereo unspecified)
inactive: dose: 1.32 mg/kg/injection, schedule: Q01DX009 (ip), vehicle: saline 93 % of control | dose: 2.65 mg/kg/injection, schedule: Q01DX009 (ip), vehicle: saline 98 % of control | dose: 4.68 mg/kg/injection, schedule: Q04DX003 (ip), vehicle: saline 116 % of control | dose: 5.31 mg/kg/injection, schedule: Q01DX009 (ip), vehicle: saline 105 % of control and 107 % of control | dose: 9.37 mg/kg/injection, schedule: Q04DX003 (ip), vehicle: saline 111 % of control | dose: 10.6 mg/kg/injection, schedule: Q01DX009 (ip), vehicle: saline 88 % of control | dose: 10.62 mg/kg/injection, schedule: Q01DX009 (ip), vehicle: saline 88 % of control | dose: 18.75 mg/kg/injection, schedule: Q04DX003 (ip), vehicle: saline 119 % of control | dose: 21.2 mg/kg/injection, schedule: Q01DX009 (ip), vehicle: saline 90 % of control | dose: 21.25 mg/kg/injection, schedule: Q01DX009 (ip), vehicle: saline 91 % of control and 109 % of control | dose: 37.5 mg/kg/injection, schedule: Q04DX003 (ip), vehicle: saline 113 % of control | dose: 42.5 mg/kg/injection, schedule: Q01DX009 (ip), vehicle: saline 95 % of control and 101 % of control | dose: 75.0 mg/kg/injection, schedule: Q04DX003 (ip), vehicle: saline 119 % of control | dose: 85.0 mg/kg/injection, schedule: Q01DX009 (ip), vehicle: saline 87 % of control | dose: 110.0 mg/kg/injection, schedule: Q04DX003 (ip), vehicle: saline 112 % of control

COc1ccc(C(Nc2ccccc2)C(=O)c2ccccc2)cc1 (stereo unspecified)
inactive: dose: 3.12 mg/kg/injection, schedule: Q01DX009 (ip), vehicle: Klucel (hydroxypropylcellulose) (HPC) 90 % of control | [1] 106 % of control | [2] 89 % of control | [3] 89 % of control and 90 % of control

CC(C)CN(C)/N=N/c1nc[nH]c1C(N)=O
inactive: dose: 18.75 mg/kg/injection, schedule: Q01DX009 (ip), vehicle: carboxymethylcellulose (CMC) 111 % of control | dose: 75.0 mg/kg/injection, schedule: Q01DX009 (ip), vehicle: carboxymethylcellulose (CMC) 123 % of control

COc1ccc(OCC(O)CN2CCN(c3ccc(Cl)cc3)CC2)cc1 (stereo unspecified)
inactive: [1] 97 % of control | [2] 105 % of control | [3] 104 % of control | dose: 50.0 mg/kg/injection, schedule: Q01DX009 (ip), vehicle: Klucel (hydroxypropylcellulose) (HPC) 111 % of control | dose: 100.0 mg/kg/injection, schedule: Q01DX009 (ip), vehicle: Klucel (hydroxypropylcellulose) (HPC) 108 % of control | dose: 200.0 mg/kg/injection, schedule: Q01DX009 (ip), vehicle: Klucel (hydroxypropylcellulose) (HPC) 105 % of control

C1CCC(C2OCCO2)CC1
inactive: dose: 50.0 mg/kg/injection, schedule: Q04DX003 (ip), vehicle: saline 90 % of control | dose: 100.0 mg/kg/injection, schedule: Q01DX009 (ip), vehicle: saline 113 % of control | dose: 100.0 mg/kg/injection, schedule: Q04DX003 (ip), vehicle: saline 95 % of control | dose: 200.0 mg/kg/injection, schedule: Q01DX009 (ip), vehicle: saline 97 % of control | dose: 200.0 mg/kg/injection, schedule: Q04DX003 (ip), vehicle: saline 90 % of control

CC(=O)Nc1cccc2c1CCCC2
inactive: dose: 100.0 mg/kg/injection, schedule: Q04DX003 (ip), vehicle: gum acacia 113 % of control | dose: 200.0 mg/kg/injection, schedule: Q04DX003 (ip), vehicle: gum acacia 97 % of control | dose: 400.0 mg/kg/injection, schedule: Q04DX003 (ip), vehicle: gum acacia 95 % of control

Cc1cc(C)c([I+]c2c(C)cc(C)cc2C)c(C)c1
inactive: dose: 1.5 mg/kg/injection, schedule: Q01DX009 (ip), vehicle: suspension in saline 103 % of control | dose: 3.0 mg/kg/injection, schedule: Q01DX009 (ip), vehicle: Klucel (hydroxypropylcellulose) (HPC) 91 % of control | dose: 3.0 mg/kg/injection, schedule: Q01DX009 (ip), vehicle: suspension in saline 95 % of control | dose: 6.0 mg/kg/injection, schedule: Q01DX009 (ip), vehicle: Klucel (hydroxypropylcellulose) (HPC) 91 % of control | dose: 6.0 mg/kg/injection, schedule: Q01DX009 (ip), vehicle: suspension in saline 100 % of control

S=C(NC1CCCCC1)NC1CCCCC1
inactive: dose: 100.0 mg/kg/injection, schedule: Q01DX009 (ip), vehicle: saline with Tween-80 95 % of control | dose: 200.0 mg/kg/injection, schedule: Q01DX009 (ip), vehicle: saline with Tween-80 114 % of control | dose: 400.0 mg/kg/injection, schedule: Q01DX009 (ip), vehicle: saline with Tween-80 90 % of control

Cc1c2ccccc2cc2cc[n+]3ccccc3c12
inactive: dose: 3.75 mg/kg/injection, schedule: Q01DX009 (ip), vehicle: Klucel (hydroxypropylcellulose) (HPC) 98 % of control | dose: 7.5 mg/kg/injection, schedule: Q01DX009 (ip), vehicle: Klucel (hydroxypropylcellulose) (HPC) 98 % of control | dose: 15.0 mg/kg/injection, schedule: Q01DX009 (ip), vehicle: Klucel (hydroxypropylcellulose) (HPC) 102 % of control
